The text below walks through data of PMC3522636, “4F Decreases IRF5 Expression and Activation in Hearts of Tight Skin Mice” (PLoS ONE, 2012).

“Also recorded” adds a separate entry of the source.

For test [1], the system named is IRF5. The test can be described thus: IRF5 immunoprecipitation, phosphoserine and ubiquitin on IRF5 in heart lysates. It is filed as in vivo, mouse. From the text: (§1) All experimental procedures and protocols involving mice were reviewed and approved by the Institutional Animal Care and Use Committee (IACUC) of the Medical College of Wisconsin (AUA#512). They also conformed to the rules in the Guiding Principles in the Care and Use of Animals published by the American Physiologic Society and the Guide for the Care and Use of Laboratory Animals published by OLAW. Male Tsk^−/+ and C57Bl/6J mice (6–8 weeks of age) were purchased from Jackson Laboratories (Bar Harbor, ME). Three groups of mice were studied; C57Bl/6J, Tsk^−/+, and Tsk^−/+ mice treated with 4F (1 mg/kg/d, sc) as published previously.
To determine the effects of strain and 4F treatments on the activation state of IRF5 we immunoprecipitated IRF5 from heart homogenates and examined changes in phosphoserine and ubiquitination on IRF5 using previously published protocols, [15]. Briefly, heart homogenates were precleared with agarose beads for 1 hour followed by addition of anti-IRF5 antibody (Santa Cruz Biotechnologies) to the homogenates (500 µg in 0.5 ml) at 5 µg/100 µl (final concentration). Samples were incubated for 16 h at 4°C with end-over-end mixing. A 50 µl aliquot of a 50% slurry of Protein A agarose beads (Santa Cruz Biotechnologies) was added and incubated for 2 h with end-over-end mixing to pull-down immunocaptured IRF5. The beads were isolated by centrifugation and washed 3 times (3 minutes each time) in PBS. IRF5 was released from the beads with Laemmli sample buffer (Bio-Rad, Hercules, CA) containing mercaptoethanol and heating to 95°C for 5 min. IRF5 was separated from co-precipitated proteins by SDS-PAGE (4–15% Tris·HCl Criterion gels, Bio-Rad) and the proteins transferred onto nitrocellulose membranes. Membranes were blocked in 10% non-fat dry milk and then incubated in 2% non-fat dry milk containing polyclonal rabbit anti-phosphoserine (Antibodies-Online, Atlanta, GA, 1∶200 dilution), monoclonal mouse anti-ubiquitin (Santa Cruz Biotechnologies, 1∶200 dilution) or monoclonal mouse anti-K^63 ubiquitin (Enzo, Farmingdale, NY, 1∶500 dilution) overnight at 4°C. The next day, the membranes were gently washed and incubated with the HRP-conjugated donkey anti-rabbit antibody (1∶5,000, Santa Cruz Biotechnologies). Autoradiograms were developed; images of bands captured and densities analyzed as described above.

A further test relates to proinflammatory HDL. The conditions noted are these: cited from earlier work. From the text:
Scleroderma is an autoimmune disease that is characterized by marked increases in fibrosis of the skin and internal organs in conjunction with enhanced apoptosis. The tight skin (Tsk^−/+) mouse is a murine model of systemic scleroderma that replicates many of the features observed in patients suffering from this disease.

Test [2] deals with IRF5. The test can be described thus: IRF5 positive nuclei, immunofluorescence of heart sections. It is filed as in vivo, mouse. The settings on record: 4F 1 mg/kg/d, sc; Tsk−/+ heart sections, confocal; ratio IRF5 labeled nuclei to total nuclei; p<0.05, n = 3.
Excerpt: as §1
Hearts were harvested from mice, flash frozen and imbedded in OCT and cut into 10 µm sections. Frozen sections were fixed for 10 minutes in PBS containing 1% paraformaldehyde. Cell membranes were permeabilized by incubation in PBS containing 0.5% Triton-X for 5 min at room temperature. The sections were washed once in PBS (5 min) and incubated in PBS containing mouse monoclonal anti-IRF5 antibody (Santa Cruz, 1∶50 concentration) for 30 min at 37°C. Unbound anti-IRF5 antibody was washed free from the sections with PBS and the slides incubated with the appropriate Alexa 488-conjugated secondary antibody (Invitrogen, Carlsbad, CA) for 30 min at 37°C. […] Sections were mounted in aqueous mounting media and analyzed by confocal microscopy, [17].

The target of test [3] is T1, IRF5 (Homo sapiens, UniProt Q13568).
T1 construct: purchased GenScript USA Inc
T1 sequence (Q13568 1-498): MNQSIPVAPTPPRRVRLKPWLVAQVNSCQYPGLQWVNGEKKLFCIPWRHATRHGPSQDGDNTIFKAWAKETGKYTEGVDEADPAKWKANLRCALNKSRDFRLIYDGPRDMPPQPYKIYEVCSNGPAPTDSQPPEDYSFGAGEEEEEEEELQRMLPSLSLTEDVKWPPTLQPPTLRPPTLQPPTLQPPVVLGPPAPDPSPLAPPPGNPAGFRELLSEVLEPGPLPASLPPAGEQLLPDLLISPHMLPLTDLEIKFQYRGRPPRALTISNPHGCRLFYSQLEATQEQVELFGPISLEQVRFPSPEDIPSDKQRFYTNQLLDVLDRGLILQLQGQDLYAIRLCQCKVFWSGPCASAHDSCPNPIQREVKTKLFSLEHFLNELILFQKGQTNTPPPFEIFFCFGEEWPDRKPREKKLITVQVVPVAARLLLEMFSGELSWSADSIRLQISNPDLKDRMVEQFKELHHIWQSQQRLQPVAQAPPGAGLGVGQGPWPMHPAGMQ
The test can be described thus: B-4F pulldown assay from EC cytosolic fractions spiked with recombinant IRF5. The test is classed as binding. The conditions noted are these: 3 hours at 4°C, SA agarose beads overnight at 4°C; immunoblot. As for the experimental part:
B-4F Pulldown Assays: To determine whether 4F interacts with IRF5 in the presence of cystosol proteins, we performed 4F pulldown assays on EC cytosolic fractions spiked with recombinant IRF5. Briefly, cytosolic EC fractions were precleared with SA agarose beads (Cat#15942-050, Invitrogen) for 30 minutes at 4°C. IRF5 interactions were enhanced by adding recombinant IRF5 (2% wt/vol, Genscript USA Inc.) to the endothelial cytosolic fractions. 4F and B-4F were added to the cytosolic fractions and incubated for 3 hours at 4°C. SA agarose beads were added and the samples mixed end-over-end overnight at 4°C. The following day the SA agarose beads were isolated by centrifugation. The proteins associated with B-4F were released from the beads with Laemmli buffer and separated by SDS-PAGE (4–15%) as above. IRF5 levels in the pulldown samples were determined by autoradiography of immunoblots as above.
(In western blotting, separated proteins are transferred to a membrane and probed.)

The test system of another test is HDL. The settings on record: proposed mechanism; cited from earlier work. From the text: (§2) Although there is much support for the idea that 4F inhibits atherosclerosis by improving HDL function, the mechanism by which 4F decreases inflammation has not been identified completely. […] During the course of our studies for our report, [3], we found the anti-inflammatory effects of 4F on the Tsk^−/+ mice to be so profound that it was ...

The conditions of test [4]: cited from earlier work.
Excerpt: as §2

Ac-DWFKAFYDKVAEKFKEAF-NH2 [4F]: in the test with IRF5 [1] (4F 1 mg/kg/d, sc, Tsk−/+ hearts, IRF5 immunoprecipitates), the “phosphoserine levels on IRF5 (in words)” value is on record as “decrease phosphoserine; also recorded: reduced phosphoserine levels on IRF5 in Tsk^−/+ hearts”. Also, the “decrease of phosphoserine levels on IRF5” value in the test with IRF5 [1] (4F-treated Tsk−/+ hearts vs C57BL/6J and untreated Tsk−/+ hearts, IRF5 immunoprecipitates, Western blot) is on record as “about 15%”. In addition, in the test with IRF5 [1] (4F-treated Tsk−/+ hearts vs C57BL/6J hearts, * = p<0.05, n = 4, IRF5 immunoprecipitates), the “total ubiquitin on IRF5” value was “increase total ubiquitin on IRF5; also recorded: increased in 4F-treated Tsk^−/+ hearts compared with the levels on IRF5 in C57BL/6J hearts; also recorded: significantly increased total ubiquitin levels on IRF5 in the Tsk^−/+ hearts”. In the test on IRF5 [1] (4F-treated Tsk−/+ hearts, inferred from phosphoserine and ubiquitin on IRF5), the “IRF5 activation (in words)” value is “decrease IRF5 expression and activation in Tsk^−/+ hearts; also recorded: inactivated in 4F-treated Tsk^−/+ hearts”. The “proinflammatory HDL levels” value in the test with proinflammatory HDL was “decrease proinflammatory HDL levels”. Also, in the test on IRF5 [2], the “IRF5 nuclear localization / IRF5 positive nuclei” value was “decreased both measurements in Tsk^−/+ hearts; also recorded: marked decreases in IRF-5 nuclear localization; also recorded: significantly more nuclear labeling in Tsk^−/+ hearts compared to C57BL/6J hearts and hearts from Tsk^−/+ mice treated with 4F; also recorded: decrease IRF5 expression, activation, nuclear translocation”. The “association with IRF5 in presence of EC cytosolic proteins (in words)” value at IRF5 [3] is reported as “strong enough to pull down IRF5 from a mixture of endothelial cell cytosolic proteins; also recorded: this interaction exists even in the presence of EC cytosolic proteins”. In addition, in the test on HDL, the “preβ HDL formation and HDL-dependent cholesterol efflux” value is reported as “formation of preβ HDL with improved HDL-dependent cholesterol efflux”; the reverse cholesterol transport entry is reported as “improvements in reverse cholesterol transport”. Moreover, the “affinity for oxidized versus native lipids” value in test [4] is “greater affinity for oxidized rather than native lipids”.
